# Patent publication US6348461B1, “6,7-asymmetrically disubstituted quinoxalinecarboxylic acid derivatives, addition salts thereof, and processes for the preparation of both” (Kyorin Pharmaceutical Co., Ltd., priority 1997, dated 2002)
# Columns and labels:
# [1] = biological target: AMPA receptor; test: Binding experiment to AMPA receptor ([3H]-AMPA displacement, crude synaptosome membrane preparations); design: species or system rats; conditions: crude synaptosome membranes from rat cerebral cortex; [3H]-AMPA 5 nM; potassium thiocyanate 100 mM; 30 minutes at 0° C.; Ki converted from IC50
# Method: Binding Experiment to AMPA Receptor
# After the reactions were stopped by suction filtration, the radio activity on the filter was measured with liquid scintillation counter. The specific binding of [^3H]-AMPA was determined by subtracting nonspecific binding level in the presence of glutamic acid (0.1 mM) from overall binding level.
SMILES,Ki [1] [nM],melting point
"O=C(O)c1nc2cc(N3CCOCC3)c([N+](=O)[O-])cc2[nH]c1=O [Example 35, 3,4-Dihydro-7-morpholino-6-nitro-3-oxoquinoxaline-2-carboxylic Acid]",2040,213.5 to 214.5 °C
"O=C(O)c1nc2cc(-n3ccc(=O)cc3)c([N+](=O)[O-])cc2[nH]c1=O [Example 37, 3,4-Dihydro-6-nitro-3-oxo-7-(4-pyridone-1-yl)quinoxaline-2-carboxylic Acid]",330,283 to 285 °C
"Cl.O=C(O)c1nc2cc(Cn3ccnc3)c([N+](=O)[O-])cc2[nH]c1=O [Example 66, 3,4-Dihydro-7-(imidazole-1-yl)methyl-6-nitro-3-oxoquinoxaline-2-carboxylic Acid Hydrochloride]",360,> 300 °C
O=C(Nc1ccccc1C(F)(F)F)OCc1cn(-c2cc3nc(C(=O)O)c(=O)[nH]c3cc2[N+](=O)[O-])cn1 [Example 101],32.3,230 to 232 °C (dec.)
"O=C(Nc1ccccc1)OCc1cn(-c2cc3nc(C(=O)O)c(=O)[nH]c3cc2[N+](=O)[O-])ccc1=O [Example 121, 3,4-Dihydro-6-nitro-3-oxo-7-(3-((N-phenylcarbamoyloxy)methyl)-4-pyridone-1-yl)quinoxaline-2-carboxylic Acid]",172,230 to 232 °C (dec.)
O=C(Nc1cccc(Br)c1)OCc1cn(-c2cc3nc(C(=O)O)c(=O)[nH]c3cc2[N+](=O)[O-])ccc1=O [Example 123],48.1,199 to 201 °C (dec.)
"CCOC(=O)c1ccc(NC(=O)OCc2cn(-c3cc4nc(C(=O)O)c(=O)[nH]c4cc3[N+](=O)[O-])ccc2=O)cc1 [Example 306, 7-(3-((N-(4-Ethoxycarbonylphenyl)carbamoyloxy)methyl)-4-pyridone-1-yl)-3,4-dihydro-6-nitro-3-oxoquinoxaline-2-carboxylic Acid]",–,201 to 203 °C (dec.)
"O=C(Nc1ccc(C(=O)O)cc1)OCc1cn(-c2cc3nc(C(=O)O)c(=O)[nH]c3cc2[N+](=O)[O-])ccc1=O [Example 307, 7-(3-((N-(4-Carboxyphenyl)carbamoyloxy)methyl)-4-pyridone-1-yl)-3,4-dihydro-6-nitro-3-oxoquinoxaline-2-carboxylic Acid]",–,231 to 233 °C (dec.)

# The next lines start with the values.
Ki [1] [nM],melting point,SMILES
1260,–,"O=C(O)c1nc2cc(Cl)c([N+](=O)[O-])cc2[nH]c1=O [Example 5, 7-Chloro-3,4-dihydro-6-nitro-3-oxoquinoxaline-2-carboxylic Acid]"
2010,–,"O=C(O)c1nc2cc(F)c([N+](=O)[O-])cc2[nH]c1=O [Example 6, 3,4-Dihydro-7-fluoro-6-nitro-3-oxoquinoxaline-2-carboxylic Acid]"
630,–,"O=C(O)c1nc2cc(Br)c([N+](=O)[O-])cc2[nH]c1=O [Example 7, 7-Bromo-3,4-dihydro-6-nitro-3-oxoquinoxaline-2-carboxylic Acid]"
330,239 to 242 °C,"Cc1cc2nc(C(=O)O)c(=O)[nH]c2cc1[N+](=O)[O-] [Example 8, 3,4-Dihydro-7-methyl-6-nitro-3-oxoquinoxaline-2-carboxylic Acid]"
450,> 300 °C,"O=C(O)c1nc2cc(-n3ccnc3)c([N+](=O)[O-])cc2[nH]c1=O [Example 36, 3,4-Dihydro-7-(imidazole-1-yl)-6-nitro-3-oxoquinoxaline-2-carboxylic Acid]"
910,–,"CN(C)c1cc2nc(C(=O)O)c(=O)[nH]c2cc1[N+](=O)[O-] [Example 39, 3,4-Dihydro-7-dimethylamino-6-nitro-3-oxoquinoxaline-2-carboxylic Acid]"
860,154 to 156 °C (dec.),"O=C(O)c1nc2cc(Oc3ccccc3)c([N+](=O)[O-])cc2[nH]c1=O [Example 62, 3,4-Dihydro-6-nitro-3-oxo-7-phenoxyquinoxaline-2-carboxylic Acid]"
28.2,251 to 253 °C (dec.),O=C(Nc1ccccc1F)OCc1cn(-c2cc3nc(C(=O)O)c(=O)[nH]c3cc2[N+](=O)[O-])cn1 [Example 96]
–,> 300 °C,"O=C(O)Cc1cn(-c2cc3nc(C(=O)O)c(=O)[nH]c3cc2[N+](=O)[O-])cn1 [Example 303, 7-(4-(Carboxymethyl)imidazolyl)-3,4-dihydro-6-nitro-3-oxoquinoxaline-2-carboxylic Acid]"
